In US11993582B2, “Crystalline forms of a LTA4H inhibitor” (Novartis AG, priority 2018, dated 2024):
In brackets after ≈: the same amount, converted by molar mass.

Legend:
Format in all cases: physicochemical
[1] = Stability in solvent: equilibration of Form HB with solvent, residue analysed by XRPD; conditions: slurry experiments
Procedure: Equilibrations with solvent were carried out to investigate the relative stability of form HB in solvent. 50 mg of Form HB is equilibrated with 1 mL solvent for 24 h (or 7 days, or 28 days) in a water bath at 25° C. or for 7 days at 50° C. The solutions are filtered and dried for 10 minutes in air. The resulting solid is analyzed by XRPD.
Various solvent were investigated: acetone, acetonitrile, dichloromethane, dioxane, ethanol, heptane, methanol, THF, acetone/water mixtures from 10/90 to 90/10, acetonitrile/water mixtures from 10/90 to 90/10, dioxane/water mixtures from 10/90 to 90/10 and ethanol/water mixture from 10/90 to 90/10, tetrahydrofuran/water (50/50) and 1-propanol/water (70/30).

[2] = Solubility in aqueous buffers and bio-relevant media
[3] = Solid state stability in bulk (HPLC degradation products, XRPD)
Procedure: The chemical and physical stability of form B and form HB was investigated, exposing the individual forms to high humidity at temperatures ranging from 25-80° C.
The degradation products were analyzed by HPLC and the sample was analyzed by XPRD to detect any changes to the solid state.

Hygroscopicity by DVS = assay: Hygroscopicity by DVS
Description: Crystalline form HB is a hydrated form of (S)-3-amino-4-(5-(4-((5-chloro-3-fluoropyridin-2-yl)oxy)phenyl)-2H-tetrazol-2-yl)butanoic acid.

[4] = Competitive slurry experiments at different water activities
Procedure: Competitive slurry experiments at different water activities at 25° C. and at 50° C. were performed. Competitive slurries of a (1:1) physical mixture of Modifications HB and B at different water activities were also performed.

**Q.** For N[C@@H](CC(=O)O)Cn1nnc(-c2ccc(Oc3ncc(Cl)cc3F)cc2)n1 [Form B, (S)-3-amino-4-(5-(4-((5-chloro-3-fluoropyridin-2-yl)oxy)phenyl)-2H-tetrazol-2-yl)butanoic acid], which “Form conversion through slurry” value [1] is on record?
**A.** does not transform into other form

**Q.** And the solubility ([2]; FaSSIF-V2 (pH=6.6))?
**A.** 70 µg/mL (≈ 178 µM)

**Q.** And the solubility ([2]; FeSSIF-V2 (pH=5.9))?
**A.** 180 µg/mL (≈ 458 µM)

**Q.** And the solubility ([2]; aqueous buffers, aqueous buffer, pH values of 4 to 7)?
**A.** 50 µg/mL (≈ 127 µM)

**Q.** And the Hydrate formation ([3]; 1 week at 40° C./90% RH)?
**A.** no hydrate formation was detected

**Q.** And the Stability in bulk ([3]; 1 week at 40° C./90% RH)?
**A.** stable

**Q.** What about the “Chemical and physical stability in bulk” value ([3]; test conditions 1-5: 1 week, tight or open container, room temperature to 80° C., up to 92% RH) of the same compound?
**A.** displayed good stability and did not convert at all

**Q.** What about the Maximum water uptake (Hygroscopicity by DVS; 25° C. at 90% RH by DVS) of the same compound?
**A.** less than 0.7%

**Q.** What about the Hygroscopicity (Hygroscopicity by DVS; by DVS) of the same compound?
**A.** slightly hygroscopic

**Q.** With N[C@@H](CC(=O)O)Cn1nnc(-c2ccc(Oc3ncc(Cl)cc3F)cc2)n1 (mixture of isomers) [Physical mixture of HB and B (1:1), (S)-3-amino-4-(5-(4-((5-chloro-3-fluoropyridin-2-yl)oxy)phenyl)-2H-tetrazol-2-yl)butanoic acid] as the compound, how does the “Solid form after competitive slurry” value ([4]; 25 Degrees Celsius, Acetonitrile, aw 0.00, 2 days) read?
**A.** Form B

**Q.** What about the “Solid form after competitive slurry” value ([4]; 25 Degrees Celsius, Acetonitrile, aw 0.00, 5 days) of the same compound?
**A.** Form B

**Q.** And the “Solid form after competitive slurry” value ([4]; 25 Degrees Celsius, Acetonitrile/water (83:17), aw 0.93, 2 days)?
**A.** Forms HB + B

**Q.** What about the “Solid form after competitive slurry” value ([4]; 25 Degrees Celsius, Acetonitrile/water (83:17), aw 0.93, 5 days) of the same compound?
**A.** Forms HB + B

**Q.** What about the “Solid form after competitive slurry” value ([4]; 25 Degrees Celsius, Acetonitrile/water (88:12), aw 0.90, 2 days) of the same compound?
**A.** Forms HB + B

**Q.** And the “Solid form after competitive slurry” value ([4]; 25 Degrees Celsius, Acetonitrile/water (88:12), aw 0.90, 5 days)?
**A.** Forms HB + B

**Q.** What about the “Solid form after competitive slurry” value ([4]; 25 Degrees Celsius, Acetonitrile/water (92:8), aw 0.82, 2 days) of the same compound?
**A.** Forms HB + B

**Q.** And the “Solid form after competitive slurry” value ([4]; 25 Degrees Celsius, Acetonitrile/water (92:8), aw 0.82, 5 days)?
**A.** Forms HB + B

**Q.** What about the “Solid form after competitive slurry” value ([4]; 25 Degrees Celsius, Acetonitrile/water (97:3), aw 0.50, 2 days) of the same compound?
**A.** Forms HB + B

**Q.** And the “Solid form after competitive slurry” value ([4]; 25 Degrees Celsius, Acetonitrile/water (97:3), aw 0.50, 5 days)?
**A.** Form B

**Q.** And the “Solid form after competitive slurry” value ([4]; 25 Degrees Celsius, Acetonitrile/water (98:2), aw 0.44, 2 days)?
**A.** Form B

**Q.** What about the “Solid form after competitive slurry” value ([4]; 25 Degrees Celsius, Acetonitrile/water (98:2), aw 0.44, 5 days) of the same compound?
**A.** Form B

**Q.** What about the “Solid form after competitive slurry” value ([4]; 25 Degrees Celsius, Methanol, aw 0.00, 2 days) of the same compound?
**A.** Form B

**Q.** What about the “Solid form after competitive slurry” value ([4]; 25 Degrees Celsius, Methanol, aw 0.00, 5 days) of the same compound?
**A.** Form B

**Q.** And the “Solid form after competitive slurry” value ([4]; 25 Degrees Celsius, Methanol/water (22:78), aw 0.90, 2 days)?
**A.** Forms HB + B

**Q.** What about the “Solid form after competitive slurry” value ([4]; 25 Degrees Celsius, Methanol/water (22:78), aw 0.90, 5 days) of the same compound?
**A.** Forms HB + B

**Q.** What about the “Solid form after competitive slurry” value ([4]; 25 Degrees Celsius, Methanol/water (57:43), aw 0.70, 2 days) of the same compound?
**A.** Forms HB + B

**Q.** What about the “Solid form after competitive slurry” value ([4]; 25 Degrees Celsius, Methanol/water (57:43), aw 0.70, 5 days) of the same compound?
**A.** Forms HB + B

**Q.** What about the “Solid form after competitive slurry” value ([4]; 25 Degrees Celsius, Methanol/water (77:23), aw 0.50, 2 days) of the same compound?
**A.** Form B

**Q.** What about the “Solid form after competitive slurry” value ([4]; 25 Degrees Celsius, Methanol/water (77:23), aw 0.50, 5 days) of the same compound?
**A.** Form B

**Q.** What about the “Solid form after competitive slurry” value ([4]; 25 Degrees Celsius, Methanol/water (89:11), aw 0.30, 2 days) of the same compound?
**A.** Form B

**Q.** What about the “Solid form after competitive slurry” value ([4]; 25 Degrees Celsius, Methanol/water (89:11), aw 0.30, 5 days) of the same compound?
**A.** Form B

**Q.** And the “Solid form after competitive slurry” value ([4]; 25 Degrees Celsius, Methanol/water (97:3), aw 0.11, 2 days)?
**A.** Form B

**Q.** And the “Solid form after competitive slurry” value ([4]; 25 Degrees Celsius, Methanol/water (97:3), aw 0.11, 5 days)?
**A.** Form B

**Q.** And the “Solid form after competitive slurry” value ([4]; 25 Degrees Celsius, Water, aw 1.00, 2 days)?
**A.** Forms HB + B

**Q.** What about the “Solid form after competitive slurry” value ([4]; 25 Degrees Celsius, Water, aw 1.00, 5 days) of the same compound?
**A.** Forms HB + B

**Q.** And the “Water activity (aw) at which the mixture converted into pure Form B” value ([4]; 25° C.)?
**A.** ≤ 0.5

**Q.** What about the “Solid form after competitive slurry” value ([4]; 25° C., water activities above aw 0.5) of the same compound?
**A.** remained unchanged

**Q.** What about the “Solid form after competitive slurry” value ([4]; 50 degrees, Acetonitrile, aw 0.00, 2 days) of the same compound?
**A.** Form B

**Q.** And the “Solid form after competitive slurry” value ([4]; 50 degrees, Acetonitrile, aw 0.00, 5 days)?
**A.** Form B

**Q.** What about the “Solid form after competitive slurry” value ([4]; 50 degrees, Acetonitrile/water (83:17), aw 0.90, 2 days) of the same compound?
**A.** Forms B + HB

**Q.** And the “Solid form after competitive slurry” value ([4]; 50 degrees, Acetonitrile/water (83:17), aw 0.90, 5 days)?
**A.** Form B

**Q.** What about the “Solid form after competitive slurry” value ([4]; 50 degrees, Acetonitrile/water (88:12), aw 0.86, 2 days) of the same compound?
**A.** Form B

**Q.** What about the “Solid form after competitive slurry” value ([4]; 50 degrees, Acetonitrile/water (88:12), aw 0.86, 5 days) of the same compound?
**A.** Form B

**Q.** What about the “Solid form after competitive slurry” value ([4]; 50 degrees, Acetonitrile/water (92:8), aw 0.77, 2 days) of the same compound?
**A.** Form B

**Q.** What about the “Solid form after competitive slurry” value ([4]; 50 degrees, Acetonitrile/water (92:8), aw 0.77, 5 days) of the same compound?
**A.** Form B

**Q.** And the “Solid form after competitive slurry” value ([4]; 50 degrees, Acetonitrile/water (97:3), aw 0.46, 2 days)?
**A.** Form B

**Q.** What about the “Solid form after competitive slurry” value ([4]; 50 degrees, Acetonitrile/water (97:3), aw 0.46, 5 days) of the same compound?
**A.** Form B

**Q.** What about the “Solid form after competitive slurry” value ([4]; 50 degrees, Acetonitrile/water (98:2), aw 0.34, 2 days) of the same compound?
**A.** Form B

**Q.** What about the “Solid form after competitive slurry” value ([4]; 50 degrees, Acetonitrile/water (98:2), aw 0.34, 5 days) of the same compound?
**A.** Form B

**Q.** What about the “Solid form after competitive slurry” value ([4]; 50 degrees, Methanol, aw 0.00, 2 days) of the same compound?
**A.** Form B

**Q.** And the “Solid form after competitive slurry” value ([4]; 50 degrees, Methanol, aw 0.00, 5 days)?
**A.** Form B

**Q.** And the “Solid form after competitive slurry” value ([4]; 50 degrees, Methanol/water (22:78), aw 0.90, 2 days)?
**A.** Forms HB + B

**Q.** And the “Solid form after competitive slurry” value ([4]; 50 degrees, Methanol/water (22:78), aw 0.90, 5 days)?
**A.** Forms B + HB

**Q.** And the “Solid form after competitive slurry” value ([4]; 50 degrees, Methanol/water (57:43), aw 0.71, 2 days)?
**A.** Form B

**Q.** What about the “Solid form after competitive slurry” value ([4]; 50 degrees, Methanol/water (57:43), aw 0.71, 5 days) of the same compound?
**A.** Form B

**Q.** What about the “Solid form after competitive slurry” value ([4]; 50 degrees, Methanol/water (77:23), aw 0.51, 2 days) of the same compound?
**A.** Form B

**Q.** What about the “Solid form after competitive slurry” value ([4]; 50 degrees, Methanol/water (77:23), aw 0.51, 5 days) of the same compound?
**A.** Form B

**Q.** What about the “Solid form after competitive slurry” value ([4]; 50 degrees, Methanol/water (89:11), aw 0.31, 2 days) of the same compound?
**A.** Form B

**Q.** And the “Solid form after competitive slurry” value ([4]; 50 degrees, Methanol/water (89:11), aw 0.31, 5 days)?
**A.** Form B

**Q.** And the “Solid form after competitive slurry” value ([4]; 50 degrees, Methanol/water (97:3), aw 0.21, 2 days)?
**A.** Form B

**Q.** What about the “Solid form after competitive slurry” value ([4]; 50 degrees, Methanol/water (97:3), aw 0.21, 5 days) of the same compound?
**A.** Form B

**Q.** What about the “Solid form after competitive slurry” value ([4]; 50 degrees, Water, aw 1.00, 2 days) of the same compound?
**A.** Forms B + HB

**Q.** What about the “Solid form after competitive slurry” value ([4]; 50 degrees, Water, aw 1.00, 5 days) of the same compound?
**A.** Forms HB + B

**Q.** What about the “Maximum water activity (aw) for transformation to Form B” value ([4]; 50° C.) of the same compound?
**A.** ≤ 0.7
